Test results reported in patent US20250179077A1, “QUINAZOLINE COMPOUNDS AND USES THEREOF AS INHIBITORS OF MUTANT KRAS PROTEINS” (AMGEN INC., priority 2022, published 2025).

Columns and labels:
[1] = target: His-tagged KRAS G12D protein (Homo sapiens, UniProt P01116, G12D); experiment: KRAS G12D TR-FRET Assay; assay type: binding
In short: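 His-KRAS G12D (20 nM) was preincubated with titrated compound for 30 min at RT in HEPES pH 7.4 buffer with MgCl2, 10 μM GDP. Biotin-KRPep-2d (20 nM) was then added for 1 h, followed by Eu-anti-His/streptavidin-d2 for 1 h. The 665/615 nm TR-FRET ratio was fitted 4-parameter to give IC50.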

[2] = target: GDP-bound KRAS protein (aa 1-169), containing both G12D and C118A amino acid substitutions (Homo sapiens, UniProt P01116, C118A/G12D); experiment: KRAS G12D Coupled Nucleotide Exchange Assay; assay type: biochemical
Experimental: KRAS G12D Coupled Nucleotide Exchange Assay
Following compound pre-incubation, purified SOS protein (aa 564-1049) and GTP (Roche 10106399001) were added to the assay wells and incubated for an additional 30 min. […] The assay plates were then read on a PerkinElmer EnVision Multilabel Reader, using AlphaScreen® technology, and data were analyzed using a 4-parameter logistic model to calculate IC50 values.

[3] = test system: Phosphorylation of ERK1/2 in AsPC-1 cells; experiment: Phospho-ERK1/2 MSD Assay; assay type: cell-based; conditions: Homo sapiens, ASPC1, 2 h, read-out: 2 h p-ERK (AsPC-1 cells), IC50, AsPC-1 cells, 2 h compound treatment
In short: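 Phospho-ERK1/2 was quantified by MSD whole-cell lysate immunoassay in RIPA lysates made with protease/phosphatase inhibitors. A 4-parameter logistic model gave IC50.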

Chain of His-tagged KRAS G12D protein (P01116 1-188 isoform P01116-2 G12D): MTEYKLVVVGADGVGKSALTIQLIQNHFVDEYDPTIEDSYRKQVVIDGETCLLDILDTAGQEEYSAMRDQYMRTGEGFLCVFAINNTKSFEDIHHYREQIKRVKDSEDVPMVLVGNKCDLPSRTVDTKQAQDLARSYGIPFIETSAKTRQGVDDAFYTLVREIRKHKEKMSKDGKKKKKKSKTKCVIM
Chain of GDP-bound KRAS protein (aa 1-169), containing both G12D and C118A amino acid substitutions (P01116 1-169 isoform P01116-2 G12D/C118A): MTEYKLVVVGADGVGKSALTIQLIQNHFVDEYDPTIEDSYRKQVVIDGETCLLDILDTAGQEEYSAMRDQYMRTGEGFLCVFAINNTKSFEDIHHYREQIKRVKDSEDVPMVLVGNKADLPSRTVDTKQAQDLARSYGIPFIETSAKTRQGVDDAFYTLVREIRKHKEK

Row | IC50 [1] [nM] | IC50 [2] [nM] | IC50 [3] [nM] | SMILES
1 | 5 | 3 | 16 | CCc1c(F)ccc2cc(O)cc(-c3c(F)cc4c(N5CCC[C@]6(C5)C[C@@H](O)C6)nc(OC[C@@]56CCCN5C[C@H](F)C6)nc4c3F)c12 (single isomer, unassigned) [Example 91]
2 | 5 | 3 | 9 | CCc1c(F)ccc2cc(O)cc(-c3ccc4c(N5CCC[C@]6(CCO6)C5)nc(OC[C@@]56CCCN5C[C@H](F)C6)nc4c3F)c12 (single isomer, unassigned) [Example 76]
3 | 11 | 10 | 391 | CCc1c(F)ccc2cc(O)cc(-c3c(F)cc4c(N5CCOCC(F)(F)C5)nc(OC[C@@]56CCCN5C[C@H](F)C6)nc4c3F)c12 [Example 37, 4-(4-(6,6-Difluoro-1,4-oxazepan-4-yl)-6,8-difluoro-2-(((2R,7aS)-2-fluorotetrahydro-1H-pyrrolizin-7a(5H)-yl)methoxy)quinazolin-7-yl)-5-ethyl-6-fluoronaphthalen-2-ol]
4 | 4 | 3 | 166 | Cc1cc2[nH]ncc2c(-c2ccc3c(N4CCC[C@@](C)(O)C4)nc(OC[C@@]45CCCN4C[C@H](F)C5)nc3c2F)c1[C@H]1C[C@H]1C (single isomer, unassigned) [Example 107]
5 | 50 | 28 | 1860 | N#Cc1cc2c(N3CCCOCC3)nc(OC[C@@]34CCCN3C[C@H](F)C4)nc2c(F)c1-c1cc(O)cc2ccccc12 [Example 44, 8-Fluoro-2-(((2R,7aS)-2-fluorotetrahydro-1H-pyrrolizin-7a(5H)-yl)methoxy)-7-(3-hydroxynaphthalen-1-yl)-4-(1,4-oxazepan-4-yl)quinazoline-6-carbonitrile]
6 | 10 | 7 | 179 | CCc1c(F)ccc2cc(O)cc(-c3ccc4c(N5CCCC6(CNC6=O)C5)nc(OC[C@@]56CCCN5C[C@H](F)C6)nc4c3F)c12 (stereo partly drawn) [Example 52, 6-(7-(8-Ethyl-7-fluoro-3-hydroxynaphthalen-1-y1)-8-fluoro-2-(((2R,7a.S)-2-fluorotetrahydro-1H-pyrrolizin-7a(5H)-yl)methoxy)quinazolin-4-yl)-2,6-diazaspiro[3.5]nonan-1-one]
7 | 2 | 2 | 157 | CCc1c(F)ccc2cc(O)cc(-c3ccc4c(N5CCCC(O)(C(F)F)C5)nc(OC[C@@]56CCCN5C[C@H](F)C6)nc4c3F)c12 (single isomer, unassigned) [Example 23]
8 | 111 | 37 | 7740 | CCc1c(F)ccc2cc(O)cc(-c3c(F)cc4c(N5CCC(O)C5)nc(OC[C@@]56CCCN5C[C@H](F)C6)nc4c3F)c12 (stereo partly drawn) [Example 19, 1-(7-(8-Ethyl-7-fluoro-3-hydroxynaphthalen-1-yl)-6,8-difluoro-2-(((2R,7a.S)-2-fluorotetrahydro-1H-pyrrolizin-7a(5H)-yl)methoxy)quinazolin-4-yl)pyrrolidin-3-ol]
9 | 5 | 3 | 7 | CCc1c(F)ccc2cc(O)cc(-c3c(F)cc4c(N5CCC[C@]6(CCO6)C5)nc(OC[C@@]56CCCN5C[C@H](F)C6)nc4c3F)c12 (single isomer, unassigned) [Example 90]
10 | 8 | 9 | 247 | C/C=C\c1c(Cl)cc2[nH]ncc2c1-c1ccc2c(N3CCC[C@@](C)(O)C3)nc(OCC3(CN(C)C)CC3)nc2c1F [Example 115, (3R)-1-(7-(6-Chloro-5-((Z)-prop-1-en-1-yl)-1H-indazol-4-yl)-2-((1-((dimethylamino)methyl)cyclopropyl)methoxy)-8-fluoroquinazolin-4-yl)-3-methylpiperidin-3-ol]
11 | 3 | 4 | 23 | CCc1c(F)ccc2cc(O)cc(-c3ccc4c(N5CCCC6(CNC(=O)O6)C5)nc(OC[C@@]56CCCN5C[C@H](F)C6)nc4c3F)c12 (stereo partly drawn) [Example 54, 7-(7-(8-Ethyl-7-fluoro-3-hydroxynaphthalen-1-yl)-8-fluoro-2-(((2R,7aS)-2-fluorotetrahydro-1H-pyrrolizin-7a(5H)-yl)methoxy)quinazolin-4-yl)-1-oxa-3,7-diazaspiro[4.5]decan-2-one]
12 | 3 | 2 | 27 | CC1(O)COCCN(c2nc(OC[C@@]34CCCN3C[C@H](F)C4)nc3c(F)c(-c4cc(O)cc5ccc(F)c(F)c45)ccc23)C1 (single isomer, unassigned) [Example 31]
13 | 4 | 3 | 259 | CCc1c(F)ccc2cc(O)cc(-c3c(F)cc4c(N5CCCOCC5)nc(OC[C@@]56CCCN5C[C@H](F)C6)nc4c3F)c12 [Example 9, 4-(6,8-Difluoro-2-(((2R,7aS)-2-fluorotetrahydro-1H-pyrrolizin-7a(5H)-yl)methoxy)-4-(1,4-oxazepan-4-yl)quinazolin-7-yl)-5-ethyl-6-fluoronaphthalen-2-ol]
14 | 5 | 3 | 4 | CCc1cccc2cc(O)cc(-c3c(F)cc4c(N5CCOCC(C)(O)C5)nc(OC[C@@]56CCCN5C[C@H](F)C6)nc4c3F)c12 (single isomer, unassigned) [Example 33]

Row | SMILES | IC50 [1] [nM] | IC50 [2] [nM] | IC50 [3] [nM]
15 | CCc1c(F)ccc2cc(O)cc(-c3c(F)cc4c(N5[C@H]6CCC(O)[C@@H]5CC6)nc(OC[C@@]56CCCN5C[C@H](F)C6)nc4c3F)c12 (mixture of isomers) [Example 55, rac-(1S,5R)-8-(7-(8-Ethyl-7-fluoro-3-hydroxynaphthalen-1-yl)-6,8-difluoro-2-(((2R,7aS)-2-fluorotetrahydro-1H-pyrrolizin-7a(5H)-yl)methoxy)quinazolin-4-yl)-8-azabicyclo[3.2.1]octan-2-ol] | 21 | 11 | 822
